Assay [1] deals with F. lateritium and E. armeniacae. To be noted: reported by Carter et al.; cited from earlier work.
The subject of the next assay is E. lata. The experiment in a line: Grapevine bioassays in the presence of benomyl: E. lata colonization. It counts as cell-based, Eutypa lata. To be noted: 26° C., 10 days; for E. lata colonization: treatment E. lata alone. How it is done:
Bioassays were also completed to evaluate the tolerance of the BR F. lateritium strain and E. lata to benomyl when applied to grapevine segments. Benomyl concentrations tested included 0, 10, 100 and 1000 μg/ml at 50 μl aliquots per segment. Bioassays were inoculated with 20 μl aliquots of broth from 4 to 5 day old shake flask cultures of BR F. lateritium and E. lata. The F. lateritium shake flask cultures yielded approximately 4.5×10^5 cells/ml. Segments were inoculated first with benomyl and then with E. lata and BR F. lateritium. All inoculations were completed within one hour in a laminar flow hood. These bioassays were incubated at 26° C. for 10 days.
After incubation, segments were removed from the water agar, split in half and surface disinfected for ½ hour in a 2.5% sodium hypochlorite solution. The split segments were plated on PDA and monitored for E. lata presence after 5 days. All bioassays were performed in triplicate. Positive and negative controls were performed for each bioassay. Mean percent infection levels and standard errors about the mean were calculated for each treatment.

Regarding `CCCCNC(=O)n1c(NC(=O)OC)nc2ccccc21` [benomyl, 1-(butylcarbomyl)-2-benzimidazole carbamate], the “differential sensitivities of F. lateritium and E. armeniacae to benomyl” value in assay [1] is on record as “approximately 10 fold”. The “benomyl concentration applied to the segments at which E. lata did not colonize” value in the assay on E. lata (grapevine segments) is given as “exceeded 100 μg/ml”. Further, the E. lata colonization in the assay on E. lata (benomyl 10 μg/ml) came out at 100%; with E. lata (benomyl 100 μg/ml), 90%; with E. lata (benomyl 1000 μg/ml) it was 0%.

The values above are taken from patent US20020159980A1, “Benomyl tolerant fusarium lateritium and uses thereof” (priority 2001, published 2002).
